{
  "source": "patent US9901592B2",
  "about": "(priority 2008, dated 2018)",
  "key": {"S. pyogenes [1]": {"test_system": "S. pyogenes", "experiment": "microbe, parasite or virus in culture", "format": "cell-based", "settings": "for MIC: Streptococcus pyogenes"}, "[2]": {"test_system": "intraphagocytic L. pneumophila ATCC 33153 (THP-1)", "format": "cell-based", "settings": "intracellular L. pneumophila ATCC 33153"}, "M. catarrhalis": {"test_system": "M. catarrhalis", "experiment": "microbe, parasite or virus in culture", "format": "cell-based", "settings": "Moraxella catarrhalis"}, "S. pyogenes [3]": {"test_system": "S. pyogenes", "experiment": "MIC of the strains of the mouse systemic infection model", "format": "cell-based", "settings": "Streptococcus pyogenes"}, "S. pyogenes ATCC 8668": {"test_system": "S. pyogenes ATCC 8668", "experiment": "mouse subcutaneous abscess model", "format": "in vivo", "settings": "48 hr. post infection", "procedure": "Example. Mouse Subcutaneous Abscess. Bacteria were prepared from an overnight plate culture by re-suspending in saline and adjusting the suspension to a 0.1 OD at 625 nm of a 1:10 dilution. The adjusted bacterial suspension was mixed 1:2 with cyclodextran beads prepared as per package instructions. The right flanks of the mice were shaven and injected subcutaneously with 0.2 ml of the bacterial inoculum. Two hours post infection mice were treated via oral gavage with either test article or control drug. 48 hours post infection, mice were euthanized, abscesses aseptically removed, homogenized, serially diluted and plated on bacterial growth agar. After overnight incubation, colonies were counted and CFUs/gram of abscess were determined.\nExample. Mouse Subcutaneous Abscess˜S. pyogenes ATCC 8668 (Average Log10 CFU/gram of Abscess). Abscess processing 48 hours post infection."}, "S. pneumoniae": {"test_system": "S. pneumoniae", "experiment": "neutropenic mouse thigh infection", "format": "in vivo", "settings": "QD, PO"}, "S. pyogenes [4]": {"test_system": "S. pyogenes", "format": "cell-based", "settings": "for Mutant selection frequencies: S. pyogenes"}},
  "note": "Read-outs that look alike come from different tables or passages of the source.",
  "data": [
    {"smiles": "CC[C@H]1OC(=O)[C@H](C)[C@@H](O[C@H]2C[C@@](C)(OC)[C@@H](O)[C@H](C)O2)[C@H](C)[C@@H](O[C@@H]2O[C@H](C)C[C@H](N(C)C)[C@H]2O)[C@](C)(OC)C[C@@H](C)C(=O)[C@H](C)[C@@H](O)[C@]1(C)O", "note": "[CLR, clarithromycin]", "values": [
      {"measurement": "strains with resistant clones / strains tested", "setting": "S. pyogenes [1]; S. pyogenes", "result": "1/4"},
      {"measurement": "MIC", "setting": "S. pyogenes [1]; read-out: Initial MIC, strain 237 Macrolide-R [LA mutation], parent", "result": 0.25, "unit": "µg/mL"},
      {"measurement": "MIC", "setting": "S. pyogenes [1]; read-out: Initial MIC, strain 2011 Macrolide-R [mef(A)], parent", "result": 4, "unit": "µg/mL"},
      {"measurement": "MIC", "setting": "S. pyogenes [1]; read-out: Initial MIC, strain 2094 Macrolide-R [erm(A)], parent", "result": 0.5, "unit": "µg/mL"},
      {"measurement": "MIC", "setting": "S. pyogenes [1]; read-out: Initial MIC, strain 2132 Macrolide-S, parent", "result": 0.03, "unit": "µg/mL"},
      {"measurement": "MIC", "setting": "S. pyogenes [1]; read-out: Initial MIC, strain 2368 Macrolide-R [erm(B)], parent", "result": "> 64", "unit": "µg/mL"},
      {"measurement": "MIC", "setting": "S. pyogenes [1]; read-out: MIC of parent of resistant clone, S. pyogenes", "result": 500, "unit": "µg/mL"},
      {"measurement": "MIC", "setting": "S. pyogenes [1]; read-out: MIC of parents of resistant clones, S. pyogenes", "result": 0.5, "unit": "µg/mL"},
      {"measurement": "MIC", "setting": "S. pyogenes [1]; read-out: MIC of resistant clones, S. pyogenes", "result": "> 64", "unit": "µg/mL"},
      {"measurement": "MIC", "setting": "S. pyogenes [1]; read-out: Parental MICs, S. pyogenes, 5 strains with varying resistotypes", "result": "0.03 to 4", "unit": "µg/mL"},
      {"measurement": "MIC", "setting": "S. pyogenes [1]; read-out: Selected Resistance (MIC), strain 237 Macrolide-R [LA mutation], after serial passages in the drug", "result": 1, "unit": "µg/mL"},
      {"measurement": "MIC", "setting": "S. pyogenes [1]; read-out: Selected Resistance (MIC), strain 2011 Macrolide-R [mef(A)], after serial passages in the drug", "result": 8, "unit": "µg/mL"},
      {"measurement": "MIC", "setting": "S. pyogenes [1]; read-out: Selected Resistance (MIC), strain 2094 Macrolide-R [erm(A)], after serial passages in the drug", "result": "> 64", "unit": "µg/mL"},
      {"measurement": "MIC", "setting": "S. pyogenes [1]; read-out: Selected Resistance (MIC), strain 2132 Macrolide-S, after serial passages in the drug", "result": 0.016, "unit": "µg/mL"},
      {"measurement": "days until resistant clones (MIC increase)", "setting": "S. pyogenes [1]; daily passages, max. 50", "result": 6, "unit": "days"},
      {"measurement": "Retest MIC after 10 Antibioticfree Subcultures", "setting": "S. pyogenes [1]; strain 237 Macrolide-R [LA mutation], clone selected with CEM-101", "result": 1, "unit": "µg/mL"},
      {"measurement": "Retest MIC after 10 Antibioticfree Subcultures", "setting": "S. pyogenes [1]; strain 237 Macrolide-R [LA mutation], clone selected with CLN", "result": 0.5, "unit": "µg/mL"},
      {"measurement": "Retest MIC after 10 Antibioticfree Subcultures", "setting": "S. pyogenes [1]; strain 2011 Macrolide-R [mef(A)], clone selected with AZI", "result": 4, "unit": "µg/mL"},
      {"measurement": "Retest MIC after 10 Antibioticfree Subcultures", "setting": "S. pyogenes [1]; strain 2094 Macrolide-R [erm(A)], clone selected with AZI", "result": 1, "unit": "µg/mL"},
      {"measurement": "Retest MIC after 10 Antibioticfree Subcultures", "setting": "S. pyogenes [1]; strain 2094 Macrolide-R [erm(A)], clone selected with CEM-101", "result": 8, "unit": "µg/mL"},
      {"measurement": "Retest MIC after 10 Antibioticfree Subcultures", "setting": "S. pyogenes [1]; strain 2094 Macrolide-R [erm(A)], clone selected with CLN", "result": 1, "unit": "µg/mL"},
      {"measurement": "Retest MIC after 10 Antibioticfree Subcultures", "setting": "S. pyogenes [1]; strain 2094 Macrolide-R [erm(A)], clone selected with CLR", "result": ">64", "unit": "µg/mL"},
      {"measurement": "Retest MIC after 10 Antibioticfree Subcultures", "setting": "S. pyogenes [1]; strain 2094 Macrolide-R [erm(A)], clone selected with TEL", "result": 8, "unit": "µg/mL"},
      {"measurement": "Retest MIC after 10 Antibioticfree Subcultures", "setting": "S. pyogenes [1]; strain 2132 Macrolide-S, clone selected with AZI", "result": 0.25, "unit": "b μg/ml"},
      {"measurement": "Retest MIC after 10 Antibioticfree Subcultures", "setting": "S. pyogenes [1]; strain 2368 Macrolide-R [erm(B)], clone selected with CEM-101", "result": ">64", "unit": "µg/mL"},
      {"measurement": "Retest MIC after 10 Antibioticfree Subcultures", "setting": "S. pyogenes [1]; strain 2368 Macrolide-R [erm(B)], clone selected with TEL", "result": ">64", "unit": "µg/mL"},
      {"measurement": "Cs, static concentration", "setting": "[2]", "result": 0.12, "unit": "mg/L"},
      {"measurement": "MIC90", "setting": "M. catarrhalis", "result": 0.12, "unit": "µg/mL"},
      {"measurement": "MIC", "setting": "S. pyogenes [3]; S. pyogenes (erythromycin R)", "result": 1, "unit": "µg/mL"},
      {"measurement": "MIC", "setting": "S. pyogenes [3]; S. pyogenes (macrolide susceptible)", "result": 0.015, "unit": "µg/mL"},
      {"measurement": "Average Log10 CFU/gram of Abscess", "setting": "S. pyogenes ATCC 8668; 10 mg/Kg", "result": 7.63, "unit": "Log10 CFU/gram"},
      {"measurement": "Average Log10 CFU/gram of Abscess", "setting": "S. pyogenes ATCC 8668; 20 mg/Kg", "result": 7.82, "unit": "Log10 CFU/gram"},
      {"measurement": "Dose for 1 log10 Reduction from 24 hour controls", "setting": "S. pneumoniae; S. pneumoniae 1629", "result": 4.5, "unit": "mg/Kg"},
      {"measurement": "Dose for 3 log10 Reduction from 24 hour controls", "setting": "S. pneumoniae; S. pneumoniae 1629", "result": 13.5, "unit": "mg/Kg"},
      {"measurement": "Dose for 1 log10 Reduction from 24 hour controls", "setting": "S. pneumoniae; S. pneumoniae 6303", "result": 5.5, "unit": "mg/Kg"},
      {"measurement": "Dose for 2 log10 Reduction from 24 hour controls", "setting": "S. pneumoniae; S. pneumoniae 6303", "result": 9.2, "unit": "mg/Kg"},
      {"measurement": "Dose for 3 log10 Reduction from 24 hour controls", "setting": "S. pneumoniae; S. pneumoniae 6303", "result": 14.0, "unit": "mg/Kg"},
      {"measurement": "Mutant selection frequencies", "setting": "S. pyogenes [4]; at 2×MIC", "result": "<1.0×10^−10-1.7×10^−7"},
      {"measurement": "Mutant selection frequencies", "setting": "S. pyogenes [4]; at 8×MIC", "result": "<1.0×10^−10-5.0×10^−9"},
      {"measurement": "single step mutation frequency", "setting": "S. pyogenes [4]; strain 237 Macrolide-R [L4 mutation], 2 × MIC", "result": "<3.3 × 10^−10"},
      {"measurement": "single step mutation frequency", "setting": "S. pyogenes [4]; strain 237 Macrolide-R [L4 mutation], 4 × MIC", "result": "<3.3 × 10^−10"},
      {"measurement": "single step mutation frequency", "setting": "S. pyogenes [4]; strain 237 Macrolide-R [L4 mutation], 8 × MIC", "result": "<3.3 × 10^−10"},
      {"measurement": "single step mutation frequency", "setting": "S. pyogenes [4]; strain 2094 Macrolide-R [erm(A)], 2 × MIC", "result": "1.7 × 10^−7"},
      {"measurement": "single step mutation frequency", "setting": "S. pyogenes [4]; strain 2094 Macrolide-R [erm(A)], 4 × MIC", "result": "1.0 × 10^−7"},
      {"measurement": "single step mutation frequency", "setting": "S. pyogenes [4]; strain 2094 Macrolide-R [erm(A)], 8 × MIC", "result": "5.0 × 10^−9"},
      {"measurement": "single step mutation frequency", "setting": "S. pyogenes [4]; strain 2132 Macrolide-S, 2 × MIC", "result": "<1.0 × 10^−10"},
      {"measurement": "single step mutation frequency", "setting": "S. pyogenes [4]; strain 2132 Macrolide-S, 4 × MIC", "result": "<1.0 × 10^−10"},
      {"measurement": "single step mutation frequency", "setting": "S. pyogenes [4]; strain 2132 Macrolide-S, 8 × MIC", "result": "<1.0 × 10^−10"}
    ]}
  ]
}
